{"source": "patent US20070066801A1", "about": "(priority 2003, published 2007)", "key": {"[1]": {"test_system": "F. novicida", "type": "binding, Francisella novicida"}, "[2]": {"test_system": "F. tularensis LVS", "type": "binding, Francisella tularensis"}, "[3]": {"test_system": "F. novicida", "type": "binding, Francisella novicida", "remark": "listed apart in the source"}, "[4]": {"test_system": "F. philomiragia", "type": "binding, Francisella philomiragia"}, "[5]": {"test_system": "F. tularensis LVS", "type": "binding, Francisella tularensis", "remark": "listed apart in the source"}, "[6]": {"test_system": "F. philomiragia", "type": "binding, Francisella philomiragia", "remark": "listed apart in the source"}, "[7]": {"test_system": "Enterococcus hirae (ATCC 8043)", "type": "binding"}, "[8]": {"test_system": "Staphylococcus aureus (ATCC 6538)", "type": "binding"}, "[9]": {"test_system": "E. coli DH5α", "type": "binding"}}, "data": [{"sequence": "SLFWTIPIPSFR [p442S, reference compound]", "values": [{"measurement": "effect of added peptide on binding of phage 4-4-2 to F. novicida", "setting": "[1]", "value": "did not inhibit the binding of phage 4-4-2"}]}, {"sequence": "LPISNPLPIKRS [SEQ ID NO: 3]", "values": [{"measurement": "ratio of phage binding to F. tularensis LVS compared to F. philomiragia", "setting": "[2]", "value": "no specific binding"}]}, {"sequence": "TSITPWFFLSRP [p442]", "values": [{"measurement": "effect of added peptide on binding of phage 4-4-2 to F. novicida", "setting": "[1]", "value": "decreased binding of phage 4-4-2"}]}, {"sequence": "TGRHTPWPHFMP [OV1, reference compound]", "values": [{"measurement": "phage binding to F. novicida in 0.1×PBS", "setting": "[3]", "value": "Neither phage expressing peptides having the sequence of SEQ ID NO: 2 (phage 4-4-2) or SEQ ID NO: 4 (OV1 negative control) bound"}, {"measurement": "phage binding to F. novicida in Tris-Mg buffer", "setting": "[3]", "value": "equal to or greater than the binding of phage 4-4-2"}, {"measurement": "ratio of phage binding to F. novicida compared to F. philomiragia", "setting": "[3]", "value": "approximately equal binding"}, {"measurement": "effect of trypsin digestion of the bacterial surface on phage binding to F. philomiragia", "setting": "[4]", "value": "increase in binding after trypsin treatment"}, {"measurement": "effect of trypsin digestion of the bacterial surface on phage binding to F. tularensis LVS", "setting": "[5]", "value": "increase in binding after trypsin treatment"}, {"measurement": "phage binding to F. philomiragia in 0.1×PBS", "setting": "[6]", "value": "Neither phage expressing peptides having the sequence of SEQ ID NO: 2 (phage 4-4-2) or SEQ ID NO: 4 (OV1 negative control) bound"}, {"measurement": "phage binding to F. philomiragia in 1×PBS buffer", "setting": "[6]", "value": "equal to the binding of phage 4-4-2"}, {"measurement": "phage binding to F. philomiragia in Tris-Mg buffer", "setting": "[6]", "value": "equal to or greater than the binding of phage 4-4-2"}, {"measurement": "phage binding to F. tularensis LVS in 0.1×PBS", "setting": "[2]", "value": "Neither phage expressing peptides having the sequence of SEQ ID NO: 2 (phage 4-4-2) or SEQ ID NO: 4 (OV1 negative control) bound"}, {"measurement": "ratio of phage binding to F. tularensis LVS compared to F. philomiragia", "setting": "[2]", "value": "approximately equal binding"}]}, {"sequence": "TSITPWFFLSRP [phage 4-4-2]", "values": [{"measurement": "level of binding to E. hirae, fold lower than phage binding to F. novicida and F. tularensis LVS", "setting": "[7]", "value": "20-100 fold"}, {"measurement": "amount of phage binding to F. novicida in 1×PBS buffer (versus Tris-Mg)", "setting": "[3]", "value": "increased"}, {"measurement": "effect of growth on TSB (versus Chamberlain minimal medium) on phage binding to F. novicida", "setting": "[3]", "value": "stimulated binding"}, {"measurement": "phage binding to F. novicida in 0.1×PBS", "setting": "[3]", "value": "Neither phage expressing peptides having the sequence of SEQ ID NO: 2 (phage 4-4-2) or SEQ ID NO: 4 (OV1 negative control) bound"}, {"measurement": "ratio of phage binding to F. novicida compared to F. philomiragia", "setting": "[3]", "value": "> 100", "unit": "fold"}, {"measurement": "effect of trypsin digestion of the bacterial surface on phage binding to F. philomiragia", "setting": "[4]", "value": "small but reproducible increase in binding"}, {"measurement": "effect of trypsin digestion of the bacterial surface on phage binding to F. tularensis LVS", "setting": "[5]", "value": "distinct trypsin sensitivity"}, {"measurement": "phage binding to F. tularensis LVS after trypsin digestion, relative to no trypsin", "setting": "[5]", "value": "10-20%"}, {"measurement": "phage binding to F. philomiragia in 0.1×PBS", "setting": "[6]", "value": "Neither phage expressing peptides having the sequence of SEQ ID NO: 2 (phage 4-4-2) or SEQ ID NO: 4 (OV1 negative control) bound"}, {"measurement": "binding specificity of phage in Tris-Mg buffer", "setting": "[2]", "value": "showed specificity for the identification of F. tularensis LVS"}, {"measurement": "effect of growth on TSB (versus Chamberlain minimal medium) on phage binding to F. tularensis LVS", "setting": "[2]", "value": "stimulatory effect observed with F. tularensis LVS was not as great"}, {"measurement": "number of phage binding F. tularensis LVS in 1×PBS buffer (versus Tris-Mg)", "setting": "[2]", "value": "not decreased significantly"}, {"measurement": "phage binding to F. tularensis LVS in 0.1×PBS", "setting": "[2]", "value": "Neither phage expressing peptides having the sequence of SEQ ID NO: 2 (phage 4-4-2) or SEQ ID NO: 4 (OV1 negative control) bound"}, {"measurement": "ratio of phage binding to F. tularensis LVS compared to F. philomiragia", "setting": "[2]", "value": "> 100", "unit": "fold"}, {"measurement": "level of binding to S. aureus, fold lower than phage binding to F. novicida and F. tularensis LVS", "setting": "[8]", "value": "20-100 fold"}, {"measurement": "level of binding to E. coli, fold lower than phage binding to F. novicida and F. tularensis LVS", "setting": "[9]", "value": "20-100 fold"}]}]}
